Data on seven compounds can be found in PubChem BioAssay (NCI).

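1) Cells in 96-well plates. 2) Compound, 48 h, 5 concentrations. 3) Linear interpolation between surrounding doses. 4) Unreached endpoint = highest concentration. Definition used: TGI = concentration required for complete inhibition of growth.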

Some test systems named below: DMS 273 small cell lung; HOP-18 NSCLC; KM20L2 colon; LXFL 529 NSCLC; M19-MEL melanoma; SNB-78 CNS; XF 498 CNS; DLD-1 colon; P388 leukemia; P388/ADR leukemia; SN12K1 renal; RXF-631 renal.
Holding throughout (test): NCI tumour cell line growth inhibition, 48 h

For `O=C(c1ccccc1)c1nc2ccc(Cl)cc2c2c1CCCO2`, the TGI in the test on DMS 273 small cell lung, in the test with HOP-18 NSCLC, with KM20L2 colon, in the test on LXFL 529 NSCLC, in the test on M19-MEL melanoma and with SNB-78 CNS was above 100 µM throughout. In the test on XF 498 CNS, this compound registered a TGI above 100 µM.
With `Cc1ccc2c(ccc(/C=C\c3cc(C)c4cccnc4c3O)[n+]2C)c1`, the TGI with DLD-1 colon came to 4.36 µM; with DMS 273 small cell lung, 21.4 µM; with HOP-18 NSCLC, 9.28 µM; in the test on KM20L2 colon, 33.3 µM; with LXFL 529 NSCLC it was 18.9 µM.
For the compound `Clc1ccc(C[P+]2(c3ccccc3)CCCCC2)cc1`, the TGI in the test with DLD-1 colon, in the test with DMS 273 small cell lung, in the test with HOP-18 NSCLC, in the test with KM20L2 colon, with LXFL 529 NSCLC and in the test on M19-MEL melanoma was above 100 µM each time. Moreover, the TGI was above 100 µM in the test on SNB-78 CNS and 86.7 µM in the test on XF 498 CNS.
Regarding `Cc1ccc(C2COc3cc(O)c(O)cc3C2)cc1` (stereo not drawn), the TGI is 105 µM in the test on DLD-1 colon; 78.1 µM in the test on DMS 273 small cell lung; 98.2 µM with HOP-18 NSCLC; 164 µM with KM20L2 colon; 66.1 µM in the test on M19-MEL melanoma; 750 µM with P388 leukemia. Moreover, the TGI is 750 µM with P388/ADR leukemia, 75 µM in the test on SN12K1 renal and 221 µM in the test on SNB-78 CNS.
`OCc1cc2ccncc2c2c1[nH]c1ccccc12`: the TGI in the test on DLD-1 colon was above 100 µM; in the test on DMS 273 small cell lung, 16.5 µM; in the test with HOP-18 NSCLC it was 27.4 µM; in the test with LXFL 529 NSCLC it was 22 µM; in the test with SNB-78 CNS, 63.1 µM; in the test on XF 498 CNS, 19.7 µM.
Turning to `COc1cc(C(=O)CC2OC(=O)C(Cl)=C2Cl)ccc1Cl` (stereo not drawn), the TGI in the test on DLD-1 colon, with DMS 273 small cell lung, with HOP-18 NSCLC, in the test on KM20L2 colon, in the test on LXFL 529 NSCLC and in the test on M19-MEL melanoma was above 100 µM throughout. For the same compound, the TGI with RXF-631 renal, in the test with SNB-78 CNS and in the test with XF 498 CNS was above 100 µM throughout.
`CN=C(N)c1ccc(N=C(N)c2ccc(C(N)=Nc3ccc(C(N)=NC)cc3)cc2)cc1`: the TGI in the test with DMS 273 small cell lung, in the test with LXFL 529 NSCLC, in the test with M19-MEL melanoma and in the test with RXF-631 renal was above 100 µM each time.
